Measured values published in patent publication US10905680B2, “Methods of treatment for cholestatic and fibrotic diseases” (Genfit, priority 2016, dated 2021).

Assays:
[1] = tested on: Normal Human Cardiac Fibroblasts (ventricle) (NHCF-V); assay: TGFβ1-induced expression of α-SMA protein in human cardiac fibroblasts (ELISA); type: cell-based; settings: concentration of 1 μM; TGFβ1 3 ng/ml, 48 hours
Method: NTZ (A) or TZ (B) were added to serum-deprived cardiac fibroblasts (NHCF) 1 hour before the activation with TGFβ1 (3 ng/ml). After 48 hours of incubation, the expression of α-SMA was measured by ELISA. The obtained values were transformed into percentage inhibition over TGFβ1 control. Data are presented as mean (triplicates)±standard deviation (SD). Statistical analyses were performed by one-way ANOVA followed by Bonferroni post-hoc tests, using Sigma Plot 11.0 software. [*: p<0.05; **: p<0.01; ***: p<0.001 (comparison versus TGFβ1 3 ng/mL group)].
The Normal Human Cardiac Fibroblasts (ventricle) (NHCF-V) (Lonza) were isolated from normal adult heart tissue. Cells were cultured in Fibroblast Basal Medium (FBM) (Lonza cat # CC-3131) that was supplemented with FGM™-3 BulletKit™ kit (Lonza cat # CC-4525). The complete medium contains 10% fetal bovine serum. For the activation experiments with TGFβ1, the NHCF-V were plated at a density of 6×10^3 cells per well in 96-well plates. The next day, cell-culture medium was removed, and cells were washed with PBS (Invitrogen cat #14190). NHCF were deprived for 24 hours in serum-free, insulin-free and rhFGF-B-free medium. […]
The level of α-SMA was measured using a Sandwich ELISA. […]

[2] = tested on: Normal Human Dermal Fibroblasts (NHDF); assay: ACTA2 transcripts in TGFβ1-induced normal human dermal fibroblasts (RT-qPCR); type: cell-based; settings: TGFβ1 10 ng/ml, 24 hours
Method: Serum-deprived normal human dermal fibroblasts (NHDF) were preincubated for 1 hour with NTZ (A) or TZ (B) before the activation with TGFβ1 (10 ng/ml). After 24 hours of incubation, the expression of ACTA2 was measured by RT-qPCR. The expression values were then transformed as fold induction over TGFβ1 control. Data are presented as mean (triplicates)±SEM (Standard Error of Mean). Statistical analyses were performed by a student's t-test (for TGFβ-stimulated vs unstimulated conditions); [#: p<0.05; ## p<0.01; ### p<0.001] or by aone-way ANOVA followed by Bonferroni post-hoc tests (for compound-treated samples vs TGFβ1 control). [*: p<0.05; **: p<0.01; ***: p<0.001], using GraphPad Prism 7.04 software.
Normal Human Dermal Fibroblasts (NHDF) (Lonza) were cultured in Fibroblast Basal Medium (FBM) (Lonza cat # CC-3131) supplemented with FGM-2 SingleQuots™ Kit (Lonza cat # CC-3132) and 2% FBS. […]
Quantitative PCR was then carried out using the MyiQ Single-Color Real-Time PCR Detection System (Biorad). […]
For each gene, the standard curves were drawn by selecting the best points (at least three points) in order to have PCR reaction efficiency close to 100% and a correlation coefficient close to 1. Expression levels were determined using the standard curve equation for both the housekeeping gene and the target gene (taking into account the specific PCR efficiency of each target gene).

O=C(Nc1ncc([N+](=O)[O-])s1)c1ccccc1O [TZ, 2-hydroxy-N-(5-nitro-2-thiazolyl)benzamide]
antifibrotic effects (α-SMA) in normal human cardiac fibroblasts [1]: significant antifibrotic effects | antifibrotic effects (ACTA2 transcripts) in TGFβ-activated normal human dermal fibroblasts [2]: significant and dose-dependent antifibrotic effects
